“And” between values parts separate entries of the source, which are not always exact repeats. Identical values can stand only once.
System: NT2/D1-R1 control and DNMT3B knockdown cells
Assay: Genome-wide expression analysis with PAM clusters, control and DNMT3B knockdown cells (Tables 8-14)
Conditions: sh-Ctrl + aza
[1] = NT2/D1-R1, decitabine 10 nM 3 days

In the case of `Nc1ncn([C@H]2C[C@H](O)[C@@H](CO)O2)c(=O)n1` [aza], the “LOC644422 XR_019449 expression Mean” value (10 nM decitabine, 3 days) is reported as 332.598, the “LOC647954 XR_018676 expression Mean” value (10 nM decitabine, 3 days) is reported as 1348.27 and the “LOC728715 XM_0011282 expression Mean” value (10 nM decitabine, 3 days) is reported as 1760.28. For the same compound, the “M6PRBP1 NM_005817 expression Mean” value (10 nM decitabine, 3 days) was 2017.94, the “MBNL3 NM_133486 expression Mean” value (10 nM decitabine, 3 days) was 338.893 and the “MCM4 NM_005914 expression Mean” value (10 nM decitabine, 3 days) was 2945.56. The “MEPCE NM_019606 expression Mean” value (10 nM decitabine, 3 days) was 786.84, the “METTL1 NM_005371 expression Mean” value (10 nM decitabine, 3 days) was 412.423 and the “MORF4L2 NM_012286 expression Mean” value (10 nM decitabine, 3 days) was 1621.68. The “MRTO4 NM_016183 expression Mean” value (10 nM decitabine, 3 days) was 893.853, the “MT1E NM_175617 expression Mean” value (10 nM decitabine, 3 days) was 2437.55 and the “MTA2 NM_004739 expression Mean” value (10 nM decitabine, 3 days) was 453.486. For the same compound, the “MYOF NM_013451 expression Mean” value (10 nM decitabine, 3 days) was 302.746, the “MYOF NM_133337 expression Mean” value (10 nM decitabine, 3 days) was 612.957 and the “NACC2 NM_144653 expression Mean” value (10 nM decitabine, 3 days) was 566.307. For the same compound, the “NAT5 NM_181528 expression Mean” value (10 nM decitabine, 3 days) was 1401.34, the “NBPF10 NM_0010376 expression Mean” value (10 nM decitabine, 3 days) was 816.642 and the “NBPF10 NM_0010397 expression Mean” value (10 nM decitabine, 3 days) was 557.142. The “NEFH NM_021076 expression Mean” value (10 nM decitabine, 3 days) was 538.551, the “NFE2 NM_006163 expression Mean” value (10 nM decitabine, 3 days) was 459.796 and the “NM_002467 expression Mean” value (10 nM decitabine, 3 days) was 896.83. The “NM_0010397 expression Mean” value (10 nM decitabine, 3 days) was 736.286, the “NM_138781 expression Mean” value (10 nM decitabine, 3 days) was 484.429 and the “NODAL NM_018055 expression Mean” value (10 nM decitabine, 3 days) was 954.925. The “NOP2 NM_0010337 expression Mean” value (10 nM decitabine, 3 days) was 7589.18, the “NOP56 NM_006392 expression Mean” value (10 nM decitabine, 3 days) was 1764.44 and the “NP NM_000270 expression Mean” value (10 nM decitabine, 3 days) was 475.426. For the same compound, the “NR_002773 expression Mean” value (10 nM decitabine, 3 days) was 596.315, the “NR_003287 expression Mean” value (10 nM decitabine, 3 days) was 634.816 and the “NTF3 NM_002527 expression Mean” value (10 nM decitabine, 3 days) was 286.374. For the same compound, the “NTS NM_006183 expression Mean” value (10 nM decitabine, 3 days) was 641.496, the “NUAK2 NM_030952 expression Mean” value (10 nM decitabine, 3 days) was 309.88 and 403.382 and the “OAT NM_000274 expression Mean” value (10 nM decitabine, 3 days) was 2902.41. For the same compound, the “ODC1 NM_002539 expression Mean” value (10 nM decitabine, 3 days) was 3243.03, the “PAK1IP1 NM_017906 expression Mean” value (10 nM decitabine, 3 days) was 644.744 and the “PEA15 NM_003768 expression Mean” value (10 nM decitabine, 3 days) was 2263.16. The “PEG3 NM_006210 expression Mean” value (10 nM decitabine, 3 days) was 442.766, the “PITX1 NM_002653 expression Mean” value (10 nM decitabine, 3 days) was 947.042 and the “PLAU NM_002658 expression Mean” value (10 nM decitabine, 3 days) was 1093.87. For the same compound, the “PLEKHF1 NM_024310 expression Mean” value (10 nM decitabine, 3 days) was 716.406, the “POLR1C NM_203290 expression Mean” value (10 nM decitabine, 3 days) was 533.492 and 971.221 and the “PPA2 NM_006903 expression Mean” value (10 nM decitabine, 3 days) was 1058.5. The “PPAN NM_002566 expression Mean” value (10 nM decitabine, 3 days) was 615.062, the “RBM22 NM_018047 expression Mean” value (10 nM decitabine, 3 days) was 921.101 and the “RNMTL1 NM_018146 expression Mean” value (10 nM decitabine, 3 days) was 708.14. The “RPL6 NM_0010246 expression Mean” value (10 nM decitabine, 3 days) was 1189.55, the “RRM2 NM_001034 expression Mean” value (10 nM decitabine, 3 days) was 697.476 and the “RSL1D1 NM_015659 expression Mean” value (10 nM decitabine, 3 days) was 1413.6. The “RUNX3 NM_004350 expression Mean” value (10 nM decitabine, 3 days) was 484.199, the “SERPINE1 NM_000602 expression Mean” value (10 nM decitabine, 3 days) was 539.652 and the “SERTAD1 NM_013376 expression Mean” value (10 nM decitabine, 3 days) was 534.101. The “SFXN4 NM_213649 expression Mean” value (10 nM decitabine, 3 days) was 724.081, the “SIDT2 NM_0010404 expression Mean” value (10 nM decitabine, 3 days) was 528.693 and the “SLC20A1 NM_005415 expression Mean” value (10 nM decitabine, 3 days) was 1468.1. For the same compound, the “SNAPC4 NM_003086 expression Mean” value (10 nM decitabine, 3 days) was 1200.9, the “SOCS2 NM_003877 expression Mean” value (10 nM decitabine, 3 days) was 288.614 and 566.518 and the “SOX15 NM_006942 expression Mean” value (10 nM decitabine, 3 days) was 2791.76. The “SPANXD NM_145665 expression Mean” value (10 nM decitabine, 3 days) was 210.19, the “SPRYD5 NM_032681 expression Mean” value (10 nM decitabine, 3 days) was 519.493 and the “SQSTM1 NM_003900 expression Mean” value (10 nM decitabine, 3 days) was 2145.19. The “SRRT NM_015908 expression Mean” value (10 nM decitabine, 3 days) was 4196.33, the “SUSD2 NM_019601 expression Mean” value (10 nM decitabine, 3 days) was 2570.13 and the “TAGLN NM_003186 expression Mean” value (10 nM decitabine, 3 days) was 1178.17. The “TNFRSF12A NM_016639 expression Mean” value (10 nM decitabine, 3 days) was 519.778, the “TNFRSF13B NM_012452 expression Mean” value (10 nM decitabine, 3 days) was 179.31 and the “TNPO1 NM_153188 expression Mean” value (10 nM decitabine, 3 days) was 439.283. For the same compound, the “TPRG1L NM_182752 expression Mean” value (10 nM decitabine, 3 days) was 1513.68, the “TRIM8 NM_030912 expression Mean” value (10 nM decitabine, 3 days) was 922.659 and the “TTC4 NM_004623 expression Mean” value (10 nM decitabine, 3 days) was 1457.62. The “UTP14A NM_006649 expression Mean” value (10 nM decitabine, 3 days) was 555.285, the “WBSCR22 NM_017528 expression Mean” value (10 nM decitabine, 3 days) was 1107.76 and the “XM_0011261 expression Mean” value (10 nM decitabine, 3 days) was 718.505. The “XM_0011281 expression Mean” value (10 nM decitabine, 3 days) was 2231.09, the “XR_015970 expression Mean” value (10 nM decitabine, 3 days) was 1080.49 and the “XR_016703 expression Mean” value (10 nM decitabine, 3 days) was 6659.76. For the same compound, the “XR_017241 expression Mean” value (10 nM decitabine, 3 days) was 10363, the “XR_017543 expression Mean” value (10 nM decitabine, 3 days) was 832.234 and the “ZDHHC6 NM_022494 expression Mean” value (10 nM decitabine, 3 days) was 528.208. For the same compound, the “ZHX2 NM_014943 expression Mean” value (10 nM decitabine, 3 days) was 479.456, the “A4GALT (NM_017436) gene expression, Mean” value [1] was 174.249 and the “ABR (NM_001092) gene expression, Mean” value [1] was 424.634. The “ACACA (NM_198836) gene expression, Mean” value [1] was 443.13.

Reference: patent US9476099B2 (TRUSTEES OF DARTMOUTH COLLEGE, priority 2012, dated 2016)
